Source: patent US20220378706A1, “PHARMACEUTICAL COMPOSITION COMPRISING PDE9 INHIBITOR” (Eisai R&D Management Co., Ltd., priority 2017, published 2022)

System: CSF cGMP
Assay: Multiple ascending dose study: CSF cGMP
Type: in vivo, human
Description: Four sequential cohorts of healthy participants (≥50 years and ≤85 years old) were treated with multiple ascending doses of Compound A up to the maximum tolerated dose (MTD). A total of 6 participants per cohort were randomized to Compound A. Proposed doses of Compound A were:
Compound A was administered orally with 240 milliliter (mL) (8 fluid ounces) of water. […]

[1] = Day 13, 5 mg QD oral, Parts A and D
[2] = Day 13, 10 mg QD oral, Parts A and D
[3] = Day 13, 25 mg QD oral, Parts A and D
[4] = Day 13, 50 mg QD oral, Parts A and D
[5] = Day 13, 100 mg QD oral, Parts A and D
[6] = Day 13, 200 mg QD oral, Parts A and D
[7] = Day 13, 400 mg QD oral Non-Japanese, Parts A and D

In the case of `COc1ncc(C)c(-c2ccc3c(c2)[nH]c(=O)c2cnn([C@H]4CCOC4)c23)c1C` [Compound A, (S)-7-(2-methoxy-3,5-dimethylpyridin-4-yl)-1-(tetrahydrofuran-3-yl)-1H-pyrazolo[4,3-c]quin olin-4(5H)-one], the “CSF cGMP % Change from Baseline Mean” value [1] is reported as 33.162%, the “CSF cGMP % Change from Baseline Median” value [1] is reported as 29.954% and the “CSF cGMP Change from Baseline Mean” value [1] is reported as 0.491 µg/L. For the same compound, the “CSF cGMP Change from Baseline Median” value [1] was 0.350 µg/L, the “CSF cGMP Mean” value [1] was 1.964 µg/L and the “CSF cGMP Median” value [1] was 1.730 µg/L. For the same compound, the “CSF cGMP % Change from Baseline Mean” value [2] was 94.222%, the “CSF cGMP % Change from Baseline Median” value [2] was 104.348% and the “CSF cGMP Change from Baseline Mean” value [2] was 1.276 µg/L. The “CSF cGMP Change from Baseline Median” value [2] was 1.390 µg/L, the “CSF cGMP Mean” value [2] was 2.704 µg/L and the “CSF cGMP Median” value [2] was 2.620 µg/L. For the same compound, the “CSF cGMP % Change from Baseline Mean” value [3] was 170.369%, the “CSF cGMP % Change from Baseline Median” value [3] was 183.494% and the “CSF cGMP Change from Baseline Mean” value [3] was 2.058 µg/L. The “CSF cGMP Change from Baseline Median” value [3] was 1.979 µg/L, the “CSF cGMP Mean” value [3] was 3.283 µg/L and the “CSF cGMP Median” value [3] was 3.225 µg/L. The “CSF cGMP % Change from Baseline Mean” value [4] was 191.445%, the “CSF cGMP % Change from Baseline Median” value [4] was 189.244% and the “CSF cGMP Change from Baseline Mean” value [4] was 3.750 µg/L. For the same compound, the “CSF cGMP Change from Baseline Median” value [4] was 3.260 µg/L, the “CSF cGMP Mean” value [4] was 5.778 µg/L and the “CSF cGMP Median” value [4] was 4.870 µg/L. The “CSF cGMP % Change from Baseline Mean” value [5] was 260.350%, the “CSF cGMP % Change from Baseline Median” value [5] was 258.784% and the “CSF cGMP Change from Baseline Mean” value [5] was 4.352 µg/L. The “CSF cGMP Change from Baseline Median” value [5] was 3.960 µg/L, the “CSF cGMP Mean” value [5] was 6.066 µg/L and the “CSF cGMP Median” value [5] was 5.420 µg/L. The “CSF cGMP % Change from Baseline Mean” value [6] was 201.165%, the “CSF cGMP % Change from Baseline Median” value [6] was 192.932% and the “CSF cGMP Change from Baseline Mean” value [6] was 3.810 µg/L. For the same compound, the “CSF cGMP Change from Baseline Median” value [6] was 3.755 µg/L, the “CSF cGMP Mean” value [6] was 5.702 µg/L and the “CSF cGMP Median” value [6] was 5.640 µg/L. The “CSF cGMP % Change from Baseline Mean” value [7] was 198.283%, the “CSF cGMP % Change from Baseline Median” value [7] was 191.646% and the “CSF cGMP Change from Baseline Mean” value [7] was 3.302 µg/L. For the same compound, the “CSF cGMP Change from Baseline Median” value [7] was 2.920 µg/L, the “CSF cGMP Mean” value [7] was 4.945 µg/L and the “CSF cGMP Median” value [7] was 4.370 µg/L. For the same compound, the “CSF cGMP % Change from Baseline Mean” value (Part C, 50 mg, Day 13) was 229.107%, the “CSF cGMP % Change from Baseline Median” value (Part C, 50 mg, Day 13) was 218.491% and the “CSF cGMP Change from Baseline Mean” value (Part C, 50 mg, Day 13) was 3.206 µg/L. For the same compound, the “CSF cGMP Change from Baseline Median” value (Part C, 50 mg, Day 13) was 3.065 µg/L, the “CSF cGMP Mean” value (Part C, 50 mg, Day 13) was 4.620 µg/L and the “CSF cGMP Median” value (Part C, 50 mg, Day 13) was 4.265 µg/L. For the same compound, the “CSF cGMP % Change from Baseline Mean” value (Part C, 50 mg, Day 41) was 222.283%, the “CSF cGMP % Change from Baseline Median” value (Part C, 50 mg, Day 41) was 182.044% and the “CSF cGMP Change from Baseline Mean” value (Part C, 50 mg, Day 41) was 3.097 µg/L. The “CSF cGMP Change from Baseline Median” value (Part C, 50 mg, Day 41) was 2.975 µg/L, the “CSF cGMP Mean” value (Part C, 50 mg, Day 41) was 4.511 µg/L and the “CSF cGMP Median” value (Part C, 50 mg, Day 41) was 4.650 µg/L.
